According to patent US5602168A, “1-(N'-(arylalkylaminoalkyl)) aminoisoindoles; dopamine receptor subtype specific ligands” (Neurogen Corporation, priority 1995, dated 1997):
Where two headings read alike, the source gives them in different places.

Legend:
D3 receptor = molecular target: T1, D3 receptor (Chlorocebus aethiops, UniProt P52703); experiment: D3 receptor binding activity ([3H]-YM 09151-2 displacement); design: species or system African Green monkey; conditions: COS cell pellets with recombinant D3; 0.5 nM 3H-YM 09151-2; nonspecific 1 mM spiperone
T1 construct: expressed in transfected cells; host or cells: COS cells (membrane homogenate)
Protocol: (§1) Pellets of COS cells containing recombinantly produced D2 or D3 receptors from African Green monkey were used for the assays. The sample is homogenized in 100 volumes (w/vol) of 0.05M Tris HCl buffer at 4° C. and pH 7.4. The sample is then centrifuged at 30,000×g and resuspended and rehomogenized. The sample is then centrifuged as described and the final tissue sample is frozen until use. The tissue is resuspended 1:20 (wt/vol) in 0.05M Tris HCl buffer containing 100 mM NaCl.
(§2) Incubations are carried out at […] and contain 0.4 ml of tissue sample, 0.5 nM ^3 H-YM 09151-2 and the compound of interest in a total incubation of 1.0 ml. Nonspecific binding is defined as that binding found in the presence of 1 mM spiperone; without further additions, nonspecific binding is less than 20% of total binding. The binding characteristics of examples of this patent for the D2 and D3 receptor subtypes are shown in Table 2 for Rat Striatal Homogenates.

D2 receptor = D2 receptor (Chlorocebus aethiops, UniProt P52702); experiment: D2 receptor binding activity ([3H]-YM 09151-2 displacement); design: species or system African Green monkey; conditions: COS cell pellets with recombinant D2; 0.5 nM 3H-YM 09151-2; nonspecific 1 mM spiperone
Protocol: as §1, §2

[1] = molecular target: T2, human dopamine D4 receptor (Homo sapiens, UniProt P21917); experiment: D4 receptor binding activity ([3H]YM-09151-2 displacement); conditions: human D4 clonal cell lines; 0.1 nM [3H]YM-09151-2; 60 minutes at 25° C.; pH 7.4
T2 construct: expressed in transfected cells
T2 sequence (P21917 1-419): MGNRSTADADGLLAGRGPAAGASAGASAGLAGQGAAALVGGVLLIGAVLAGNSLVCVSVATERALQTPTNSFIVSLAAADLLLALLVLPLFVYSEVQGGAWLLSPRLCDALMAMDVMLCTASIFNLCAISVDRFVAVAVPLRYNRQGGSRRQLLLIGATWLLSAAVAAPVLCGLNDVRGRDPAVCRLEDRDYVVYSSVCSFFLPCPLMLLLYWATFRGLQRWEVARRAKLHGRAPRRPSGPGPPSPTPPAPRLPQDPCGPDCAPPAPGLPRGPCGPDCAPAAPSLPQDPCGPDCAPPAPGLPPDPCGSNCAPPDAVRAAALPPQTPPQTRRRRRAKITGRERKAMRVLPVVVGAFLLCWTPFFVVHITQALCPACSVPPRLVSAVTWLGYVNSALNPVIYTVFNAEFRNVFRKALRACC
Protocol: Clonal cell lines expressing the human dopamine D4 receptor subtype were harvested in PBS and the cells centrifuged and the pellets stored at -80° C. until used in the binding assay. The pellets were resuspended and the cells lysed at 4° C. in 50 mM Tris pH 7.4 buffer containing 120 mM NaCl, 1 mM EDTA and 5 mM MgCl2. The homogenate is centrifuged at 48000×g for 10 minutes at 4° C. The resulting pellet is resuspended in fresh buffer and centrifuged again. After resuspension of the pellet in fresh buffer a […] aliquot is removed for protein determination. The remaining homogenate is centrifuged as above, the supernatant removed and the pellet stored at 4° C. until needed at which time it is resuspended to a final concentration of […] with 50 mM Tris buffer (pH 7.4) and 120 mM NaCl just prior to use. Incubations were carried out for 60 minutes at 25° C. in the presence of 0.1 nM [^3 H]YM-09151-2. The incubation was terminated by rapid filtration through Whatman GF/C filters and rinsed with 2×4 ml washes of chilled 50 mM Tris (pH 7.4) and 120 mM NaCl. Non-specific binding was determined with 1 mM spiperone and radioactivity determined by counting in an LKB beta counter. Binding parameters were determined by non-linear least squares regression analysis, from which the inhibition constant Ki could be calculated for each test compound. The binding characteristics of some examples of this invention are shown in Table 3 for the dopamine D4 binding assay.

[2] = cited from earlier work
D2 receptors = conditions: background statement; cited from earlier work
D1 dopamine receptor = conditions: background statement; cited from earlier work

T1 sequence (P52703 whole entry): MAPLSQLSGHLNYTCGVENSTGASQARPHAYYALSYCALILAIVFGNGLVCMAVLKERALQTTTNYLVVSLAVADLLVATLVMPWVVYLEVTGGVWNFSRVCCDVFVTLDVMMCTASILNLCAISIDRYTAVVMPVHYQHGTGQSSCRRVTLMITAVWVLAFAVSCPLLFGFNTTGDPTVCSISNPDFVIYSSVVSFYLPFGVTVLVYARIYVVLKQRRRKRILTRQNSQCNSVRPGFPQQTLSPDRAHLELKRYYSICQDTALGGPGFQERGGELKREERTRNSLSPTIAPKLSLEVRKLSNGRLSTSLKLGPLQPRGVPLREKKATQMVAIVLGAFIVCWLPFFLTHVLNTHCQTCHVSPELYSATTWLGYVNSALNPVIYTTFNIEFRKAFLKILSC
Sequence of D2 receptor (P52702 whole entry): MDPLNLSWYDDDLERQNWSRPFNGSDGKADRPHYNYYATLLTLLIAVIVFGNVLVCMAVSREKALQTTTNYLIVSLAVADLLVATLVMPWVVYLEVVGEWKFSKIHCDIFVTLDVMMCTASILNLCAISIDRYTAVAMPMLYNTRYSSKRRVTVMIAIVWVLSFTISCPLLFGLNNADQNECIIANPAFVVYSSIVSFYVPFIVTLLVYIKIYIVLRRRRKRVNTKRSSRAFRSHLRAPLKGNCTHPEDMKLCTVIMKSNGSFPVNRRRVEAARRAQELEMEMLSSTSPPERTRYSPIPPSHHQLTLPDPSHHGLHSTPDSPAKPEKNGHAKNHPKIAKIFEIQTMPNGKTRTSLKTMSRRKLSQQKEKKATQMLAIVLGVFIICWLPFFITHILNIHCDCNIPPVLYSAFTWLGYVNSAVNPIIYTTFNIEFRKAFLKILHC

| Compound | Ki (D3 receptor) [nM] | Ki (D2 receptor) [nM] | Ki [1] [nM] | also measured |
| --- | --- | --- | --- | --- |
| CN1CCN(C2=Nc3cc(Cl)ccc3Nc3ccccc32)CC1 [clozapine] | – | – | – | incidence of extrapyramidal side effects (EPS) ([2]; versus classical neuroleptics, background statement): lesser incidence of extrapyramidal side effects (EPS) than classical neuroleptics |
| O=C(CCCN1CCC(O)(c2ccc(Cl)cc2)CC1)c1ccc(F)cc1 [haloperidol] | – | – | – | binding affinity at D2 receptors (D2 receptors): in the subnanomolar range; binding at D1 dopamine receptor (D1 dopamine receptor): binds relatively weakly |
| CCN1CCCC1CNC(=O)c1cc(S(N)(=O)=O)ccc1OC (stereo not shown) [sulpiride] | – | – | – | incidence of extrapyramidal side effects (EPS) ([2]; in vivo): lesser incidence of extrapyramidal side effects (EPS) than classical neuroleptics |

Second part, led by results:

| Ki (D3 receptor) [nM] | Ki (D2 receptor) [nM] | Ki [1] [nM] | Compound | also measured |
| --- | --- | --- | --- | --- |
| > 100000 | 2380 | 12 | c1cnc(N2CCN(CCNC3=NCc4ccccc43)CC2)nc1 [Compound 1] | – |
| > 100000 | 1420 | 70 | c1cnc(N2CCN(CCCNC3=NCc4ccccc43)CC2)nc1 [Compound 2] | – |
| > 100000 | 1940 | 100 | CN(CCCc1ccccc1)CCNC1=NCc2ccccc21 [Compound 3, 1-(N-[2-{N'-(3-phenylpropyl)-N'-methyl}aminoethyl])aminoisoindole dioxolate] | – |
